Measured values: patent US6992073B2, “Use of N-acetyl-D-glucosamine in the manufacture of a medicament for treating cervical erosion” (Third Military Medical University, Chinese People's …, priority 2002, dated 2006)

What was measured:
Lactobacilli = assay: Liquid cultivation of Lactobacilli; type: cell-based
Source text: (§1) • 1. […] Experimental Results and Evaluation: • The experiment adopts a bio-wave model which is used to research the promoting wave function of the compound of formula (I). […] II. Toxicological Test of the Compound of Formula (I), including: • 1. acute toxicity test: including tests of administrating medicine by oral, Intravenous injection and maximum limit amount for administration; • 2. […] III. Test of Removing Pathogenic Microorganism by Resistance to Field Planting Action

[1] = in vivo
Source text: as §1

[2] = test system: pathogenic microorganism such as Candida albicans, vagina Heamophilus; assay: Test of removing pathogenic microorganism by resistance to field planting action; type: cell-based; settings: in situ bacterial field planting, qualitative and quantitative determination tests
Proteus Mirabilis = assay: Promoting wave test (bio-wave model on LB plate); type: cell-based
Source text: as §1

cervix erosion = assay: Clinic test in patients with cervix erosion; type: in vivo, human beings; settings: treating group 83 cases, positive medicament control group 60 cases
Source text: A spray formulation of 2% N-acetyl-D-glucosamine was applied to human beings, up to the end of August 1999, there were 123 cases of patients to be observed in total.

| SMILES | growth of Lactobacilli (Lactobacilli) | acute test dosage relative to the injection dosage for human being [1] [times] | effect on field planting growth of pathogenic microorganism [2] | sterilizing or bacteria-inhibiting effect [2] | promoting wave function (wave pattern of concentric rings) (Proteus Mirabilis) | cured (number of cases) (cervix erosion) | effective (number of cases) (cervix erosion) |
| --- | --- | --- | --- | --- | --- | --- | --- |
| CC(=O)N[C@@H]1[C@@H](O)[C@H](O)[C@@H](CO)O[C@H]1O [compound of formula (I), N-acetyl-D-glucosamine] | can improve the growth of Lactobacilli | 300 | disabling pathogenic microorganism such as Candida albicans, vagina Heamophilus and etc. from field planting growth | substantially has no sterilizing or bacteria-inhibiting effect | many fine waves on each ring emerged | – | – |
| O=[N+]([O-])[O-].[Ag+] [AgNO3] | – | – | – | – | – | 5 | 8 |
